One assay concerns the target T1, Kynureninase (Rattus norvegicus, UniProt P70712).
T1 sequence (P70712 whole entry): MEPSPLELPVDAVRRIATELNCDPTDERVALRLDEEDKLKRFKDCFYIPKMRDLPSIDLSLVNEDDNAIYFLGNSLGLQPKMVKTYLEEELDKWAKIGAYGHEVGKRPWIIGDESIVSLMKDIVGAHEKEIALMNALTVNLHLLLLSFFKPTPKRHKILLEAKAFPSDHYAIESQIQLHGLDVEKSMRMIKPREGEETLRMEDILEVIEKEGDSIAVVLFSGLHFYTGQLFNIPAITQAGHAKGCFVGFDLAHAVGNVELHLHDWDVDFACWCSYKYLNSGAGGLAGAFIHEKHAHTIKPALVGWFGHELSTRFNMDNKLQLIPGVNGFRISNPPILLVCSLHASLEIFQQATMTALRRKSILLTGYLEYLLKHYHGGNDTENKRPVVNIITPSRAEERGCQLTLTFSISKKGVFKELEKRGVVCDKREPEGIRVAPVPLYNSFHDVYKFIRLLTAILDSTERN
The assay can be described thus: Tested for inhibitory activity against kynureninase from rat liver.

In assay [1] the target is Kynurenine 3-monooxygenase (Rattus norvegicus) (UniProt O88867). As to conditions: 100 uM.
Kynurenine 3-monooxygenase (Rattus norvegicus), sequence (O88867 whole entry, looked up): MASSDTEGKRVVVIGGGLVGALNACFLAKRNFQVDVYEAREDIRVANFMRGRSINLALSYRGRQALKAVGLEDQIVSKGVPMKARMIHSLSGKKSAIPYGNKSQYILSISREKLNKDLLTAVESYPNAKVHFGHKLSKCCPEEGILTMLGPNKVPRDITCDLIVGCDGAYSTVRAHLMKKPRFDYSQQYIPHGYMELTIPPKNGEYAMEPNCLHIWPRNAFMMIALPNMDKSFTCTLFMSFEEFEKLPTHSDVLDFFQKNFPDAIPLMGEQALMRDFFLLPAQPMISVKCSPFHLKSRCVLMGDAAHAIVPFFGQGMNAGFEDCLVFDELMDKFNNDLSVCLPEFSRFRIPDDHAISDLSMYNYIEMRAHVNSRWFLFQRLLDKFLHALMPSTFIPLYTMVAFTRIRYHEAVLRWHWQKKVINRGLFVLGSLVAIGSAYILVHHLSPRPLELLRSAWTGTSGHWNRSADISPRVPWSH
Description: Tested for inhibitory activity against kynurenine 3-hydroxylase at 100 uM concentration
In assay [2] the target is Kynurenine 3-monooxygenase (Rattus norvegicus, UniProt O88867). Briefly: Tested for inhibitory activity against kynurenine 3-hydroxylase.
Kynurenine 3-monooxygenase, sequence (O88867 whole entry): as the sequence (O88867 whole entry, looked up) above

The values that follow come from ChEMBL document CHEMBL1149923, “Synthesis and activity of enantiopure (S) (m-nitrobenzoyl) alanine, potent kynurenine-3-hydroxylase inhibitor” (Bioorg Med Chem Lett, 1995).

Usually IC50 stands for the concentration that inhibits the measured activity by half. High values mean weaker potency in that assay, low ones greater potency in that assay. As usually defined, the inhibition is the drop in the measured response relative to a control, in per cent.

At Kynureninase, `N[C@H](CC(=O)c1cccc([N+](=O)[O-])c1)C(=O)O` returned an IC50 of 100 µM. Also, in assay [1], the inhibition stood at 60%.

For the compound `N[C@@H](CC(=O)c1cccc([N+](=O)[O-])c1)C(=O)O`, the IC50 against Kynureninase was determined as 60 µM; in assay [2] it was 0.5 µM.
